Experimental data taken from article PMC10239507, “Development of allosteric and selective CDK2 inhibitors for contraception with negative cooperativity to cyclin binding” (Nature Communications, 2023).

Columns and labels:
Test in all cases: biochemical
[1] = target: T1, 371 kinases (kinase named in each endpoint) (Homo sapiens, UniProt Q08345); conditions: DDR1
T1 construct: purchased Reaction Biology

[2] = target: T2, 371 kinases (kinase named in each endpoint) (Homo sapiens, UniProt Q02750); conditions: MEK1
T2 construct: purchased Reaction Biology

[3] = target: T3, 371 kinases (kinase named in each endpoint) (Homo sapiens, UniProt P22607); conditions: FGFR3
T3 construct: purchased Reaction Biology

[4] = target: T4, 371 kinases (kinase named in each endpoint) (Homo sapiens, UniProt P54760); conditions: EPHB4
T4 construct: purchased Reaction Biology

[5] = target: T5, 371 kinases (kinase named in each endpoint) (Homo sapiens, UniProt Q9H0K1); conditions: SIK2
T5 construct: purchased Reaction Biology

[6] = target: T6, 371 kinases (kinase named in each endpoint) (Homo sapiens, UniProt Q8IVT5); conditions: KSR1
T6 construct: purchased Reaction Biology

[7] = target: T7, 371 kinases (kinase named in each endpoint) (Homo sapiens, UniProt P34947); conditions: GRK5
T7 construct: purchased Reaction Biology

[8] = target: T8, 371 kinases (kinase named in each endpoint) (Homo sapiens, UniProt Q00535)
T8 construct: purchased Reaction Biology

[9] = target: T9, 371 kinases (kinase named in each endpoint) (Homo sapiens, UniProt P42685); conditions: FRK/PTK5
T9 construct: purchased Reaction Biology

[10] = target: T10, 371 kinases (kinase named in each endpoint) (Homo sapiens, UniProt O43318); conditions: TAK1
T10 construct: purchased Reaction Biology

[11] = target: T11, 371 kinases (kinase named in each endpoint) (Homo sapiens, UniProt Q9UBE8); conditions: NLK
T11 construct: purchased Reaction Biology

[12] = target: T12, 371 kinases (kinase named in each endpoint) (Homo sapiens, UniProt P49759); conditions: CLK1
T12 construct: purchased Reaction Biology

[13] = target: T13, 371 kinases (kinase named in each endpoint) (Homo sapiens, UniProt P29320); conditions: EPHA3
T13 construct: purchased Reaction Biology

[14] = target: T14, 371 kinases (kinase named in each endpoint) (Homo sapiens, UniProt Q6DT37); conditions: DMPK2
T14 construct: purchased Reaction Biology

[15] = target: T15, 371 kinases (kinase named in each endpoint) (Homo sapiens, UniProt Q13164); conditions: ERK5/MAPK7
T15 construct: purchased Reaction Biology

[16] = target: T16, 371 kinases (kinase named in each endpoint) (Homo sapiens, UniProt Q9Y6M4); conditions: CK1G3
T16 construct: purchased Reaction Biology

[17] = target: T17, 371 kinases (kinase named in each endpoint) (Homo sapiens, UniProt Q8TF76); conditions: HASPIN
T17 construct: purchased Reaction Biology

[18] = target: T18, 371 kinases (kinase named in each endpoint) (Homo sapiens, UniProt Q00537); conditions: CDK17/CYCLIN Y (PCTK2)
T18 construct: purchased Reaction Biology

[19] = target: T19, 371 kinases (kinase named in each endpoint) (Homo sapiens, UniProt P28482); conditions: ERK2/MAPK1
T19 construct: purchased Reaction Biology

[20] = target: T20, 371 kinases (kinase named in each endpoint) (Homo sapiens, UniProt Q02763); conditions: TIE2/TEK
T20 construct: purchased Reaction Biology

[21] = target: T21, 371 kinases (kinase named in each endpoint) (Homo sapiens, UniProt Q9BZL6); conditions: PKD2/PRKD2
T21 construct: purchased Reaction Biology

[22] = target: T22, 371 kinases (kinase named in each endpoint) (Homo sapiens, UniProt Q86V86); conditions: PIM3
T22 construct: purchased Reaction Biology

[23] = target: T23, 371 kinases (kinase named in each endpoint) (Homo sapiens, UniProt O94806); conditions: PKCNU/PRKD3
T23 construct: purchased Reaction Biology

[24] = target: T24, 371 kinases (kinase named in each endpoint) (Homo sapiens, UniProt P80192); conditions: MLK1/MAP3K9
T24 construct: purchased Reaction Biology

[25] = target: T25, 371 kinases (kinase named in each endpoint) (Homo sapiens, UniProt O75582); conditions: MSK1/RPS6KA5
T25 construct: purchased Reaction Biology

[26] = target: T26, 371 kinases (kinase named in each endpoint) (Homo sapiens, UniProt Q9P0L2); conditions: MARK1
T26 construct: purchased Reaction Biology

[27] = target: T27, 371 kinases (kinase named in each endpoint) (Homo sapiens, UniProt P41743); conditions: PKCIOTA
T27 construct: purchased Reaction Biology

[28] = target: T28, 371 kinases (kinase named in each endpoint) (Homo sapiens, UniProt Q13470); conditions: TNK1
T28 construct: purchased Reaction Biology

[29] = target: T29, 371 kinases (kinase named in each endpoint) (Homo sapiens, UniProt Q9NR20); conditions: DYRK4
T29 construct: purchased Reaction Biology

[30] = target: T30, 371 kinases (kinase named in each endpoint) (Homo sapiens, UniProt Q13554); conditions: CAMK2B
T30 construct: purchased Reaction Biology

[31] = target: T31, 371 kinases (kinase named in each endpoint) (Homo sapiens, UniProt Q9BUB5); conditions: MNK1
T31 construct: purchased Reaction Biology

[32] = target: T32, 371 kinases (kinase named in each endpoint) (Homo sapiens, UniProt P00519); conditions: ABL1
T32 construct: purchased Reaction Biology

[33] = target: T33, 371 kinases (kinase named in each endpoint) (Homo sapiens, UniProt P15056); conditions: BRAF
T33 construct: purchased Reaction Biology

[34] = target: T34, 371 kinases (kinase named in each endpoint) (Homo sapiens, UniProt O75716); conditions: STK16
T34 construct: purchased Reaction Biology

[35] = target: T35, 371 kinases (kinase named in each endpoint) (Homo sapiens, UniProt P30530); conditions: AXL
T35 construct: purchased Reaction Biology

[36] = target: T36, 371 kinases (kinase named in each endpoint) (Homo sapiens, UniProt Q96S53); conditions: TESK2
T36 construct: purchased Reaction Biology

[37] = target: T37, 371 kinases (kinase named in each endpoint) (Homo sapiens, UniProt Q9P1W9); conditions: PIM2
T37 construct: purchased Reaction Biology

T8 sequence (Q00535 whole entry): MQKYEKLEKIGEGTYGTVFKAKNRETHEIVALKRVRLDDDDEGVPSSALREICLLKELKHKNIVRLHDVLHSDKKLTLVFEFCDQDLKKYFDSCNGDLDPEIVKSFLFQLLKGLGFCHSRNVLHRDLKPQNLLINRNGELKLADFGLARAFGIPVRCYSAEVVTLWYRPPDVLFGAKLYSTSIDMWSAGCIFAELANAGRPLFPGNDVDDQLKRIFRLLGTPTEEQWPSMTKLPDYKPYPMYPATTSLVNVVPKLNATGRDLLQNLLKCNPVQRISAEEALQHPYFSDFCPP
T5 sequence (Q9H0K1 whole entry): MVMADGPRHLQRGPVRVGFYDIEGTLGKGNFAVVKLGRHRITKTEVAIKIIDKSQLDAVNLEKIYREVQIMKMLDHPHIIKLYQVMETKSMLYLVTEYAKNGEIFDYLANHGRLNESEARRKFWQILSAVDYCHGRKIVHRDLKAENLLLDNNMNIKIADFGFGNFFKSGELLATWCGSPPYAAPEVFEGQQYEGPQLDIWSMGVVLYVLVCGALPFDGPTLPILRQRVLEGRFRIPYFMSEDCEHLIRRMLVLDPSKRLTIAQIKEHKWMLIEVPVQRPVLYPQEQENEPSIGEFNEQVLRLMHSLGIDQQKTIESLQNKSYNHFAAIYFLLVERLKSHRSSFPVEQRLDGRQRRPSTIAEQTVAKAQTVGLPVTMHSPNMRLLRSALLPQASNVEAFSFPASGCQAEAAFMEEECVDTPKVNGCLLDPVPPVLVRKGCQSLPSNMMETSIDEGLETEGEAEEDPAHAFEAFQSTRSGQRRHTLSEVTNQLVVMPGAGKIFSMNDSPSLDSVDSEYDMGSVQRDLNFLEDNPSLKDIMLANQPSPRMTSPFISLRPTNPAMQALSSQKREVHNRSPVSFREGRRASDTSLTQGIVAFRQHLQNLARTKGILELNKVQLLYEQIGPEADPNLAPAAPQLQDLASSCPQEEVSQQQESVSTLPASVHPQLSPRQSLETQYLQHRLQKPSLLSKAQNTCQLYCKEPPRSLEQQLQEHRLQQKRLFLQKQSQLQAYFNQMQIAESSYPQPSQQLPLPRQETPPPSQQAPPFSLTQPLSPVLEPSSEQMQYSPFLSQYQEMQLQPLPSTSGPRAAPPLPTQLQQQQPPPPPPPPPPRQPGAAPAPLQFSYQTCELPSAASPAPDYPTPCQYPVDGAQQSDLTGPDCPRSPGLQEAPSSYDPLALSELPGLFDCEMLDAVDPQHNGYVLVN
T27 sequence (P41743 whole entry): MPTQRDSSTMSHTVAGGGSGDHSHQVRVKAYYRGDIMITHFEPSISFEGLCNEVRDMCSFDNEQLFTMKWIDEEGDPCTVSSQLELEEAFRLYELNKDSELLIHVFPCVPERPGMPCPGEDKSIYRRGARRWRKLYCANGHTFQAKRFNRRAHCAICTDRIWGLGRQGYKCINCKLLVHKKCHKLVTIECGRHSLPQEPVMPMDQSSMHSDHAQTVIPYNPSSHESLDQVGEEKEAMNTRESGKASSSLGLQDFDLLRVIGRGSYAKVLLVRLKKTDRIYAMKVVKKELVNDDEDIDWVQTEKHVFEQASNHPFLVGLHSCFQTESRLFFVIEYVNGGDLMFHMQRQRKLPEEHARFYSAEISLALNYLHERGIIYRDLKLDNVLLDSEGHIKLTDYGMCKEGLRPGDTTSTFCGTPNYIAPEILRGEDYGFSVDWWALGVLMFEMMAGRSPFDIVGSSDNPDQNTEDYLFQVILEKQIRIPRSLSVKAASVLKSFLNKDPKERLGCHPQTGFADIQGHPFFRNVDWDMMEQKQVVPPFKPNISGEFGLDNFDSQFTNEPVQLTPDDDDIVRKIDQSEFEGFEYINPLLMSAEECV
T15 sequence (Q13164 whole entry): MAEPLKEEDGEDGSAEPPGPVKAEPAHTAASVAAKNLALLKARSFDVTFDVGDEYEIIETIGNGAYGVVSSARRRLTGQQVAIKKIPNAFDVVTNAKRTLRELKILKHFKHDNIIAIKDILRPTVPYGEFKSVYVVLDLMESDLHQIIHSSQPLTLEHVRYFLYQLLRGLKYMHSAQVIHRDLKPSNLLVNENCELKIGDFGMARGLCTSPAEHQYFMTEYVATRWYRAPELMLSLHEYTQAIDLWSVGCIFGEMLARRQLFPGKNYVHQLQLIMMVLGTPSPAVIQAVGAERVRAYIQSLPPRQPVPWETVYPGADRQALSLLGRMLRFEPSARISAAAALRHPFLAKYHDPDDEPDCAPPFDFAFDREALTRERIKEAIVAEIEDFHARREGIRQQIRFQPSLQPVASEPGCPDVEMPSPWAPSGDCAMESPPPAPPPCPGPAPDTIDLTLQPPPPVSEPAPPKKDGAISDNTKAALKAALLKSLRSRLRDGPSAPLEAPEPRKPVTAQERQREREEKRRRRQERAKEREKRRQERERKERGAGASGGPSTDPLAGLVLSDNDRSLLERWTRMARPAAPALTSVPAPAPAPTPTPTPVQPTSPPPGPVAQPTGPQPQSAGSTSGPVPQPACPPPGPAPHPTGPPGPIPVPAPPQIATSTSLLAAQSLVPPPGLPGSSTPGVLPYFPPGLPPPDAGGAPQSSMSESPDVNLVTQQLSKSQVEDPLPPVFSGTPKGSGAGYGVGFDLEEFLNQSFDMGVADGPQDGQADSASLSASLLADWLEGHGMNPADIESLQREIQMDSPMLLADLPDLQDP
T19 sequence (P28482 whole entry): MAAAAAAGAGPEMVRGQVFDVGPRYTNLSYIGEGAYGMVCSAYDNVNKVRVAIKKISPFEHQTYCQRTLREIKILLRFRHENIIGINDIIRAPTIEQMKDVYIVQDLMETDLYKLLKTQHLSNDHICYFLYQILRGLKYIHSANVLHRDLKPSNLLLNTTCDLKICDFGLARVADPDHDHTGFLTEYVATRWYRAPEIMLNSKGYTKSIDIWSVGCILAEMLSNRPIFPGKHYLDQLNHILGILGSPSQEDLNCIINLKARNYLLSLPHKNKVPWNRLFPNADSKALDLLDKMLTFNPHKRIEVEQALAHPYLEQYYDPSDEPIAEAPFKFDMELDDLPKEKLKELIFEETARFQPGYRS
T36 sequence (Q96S53 whole entry): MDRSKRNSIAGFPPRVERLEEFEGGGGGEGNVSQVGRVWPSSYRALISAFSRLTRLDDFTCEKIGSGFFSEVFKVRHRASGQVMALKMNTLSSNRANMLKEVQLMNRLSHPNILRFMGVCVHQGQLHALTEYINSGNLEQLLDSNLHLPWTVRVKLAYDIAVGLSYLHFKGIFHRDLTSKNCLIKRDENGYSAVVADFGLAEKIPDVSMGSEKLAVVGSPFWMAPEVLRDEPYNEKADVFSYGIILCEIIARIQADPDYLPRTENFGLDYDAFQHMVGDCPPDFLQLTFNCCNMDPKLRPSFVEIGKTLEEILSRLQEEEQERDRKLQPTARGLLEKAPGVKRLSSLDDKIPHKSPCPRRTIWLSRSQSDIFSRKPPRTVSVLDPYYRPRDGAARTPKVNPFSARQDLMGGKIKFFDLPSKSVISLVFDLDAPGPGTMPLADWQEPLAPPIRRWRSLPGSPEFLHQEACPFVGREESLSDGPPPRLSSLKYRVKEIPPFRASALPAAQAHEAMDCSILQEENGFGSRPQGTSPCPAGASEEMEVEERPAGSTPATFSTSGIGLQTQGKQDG
T25 sequence (O75582 whole entry): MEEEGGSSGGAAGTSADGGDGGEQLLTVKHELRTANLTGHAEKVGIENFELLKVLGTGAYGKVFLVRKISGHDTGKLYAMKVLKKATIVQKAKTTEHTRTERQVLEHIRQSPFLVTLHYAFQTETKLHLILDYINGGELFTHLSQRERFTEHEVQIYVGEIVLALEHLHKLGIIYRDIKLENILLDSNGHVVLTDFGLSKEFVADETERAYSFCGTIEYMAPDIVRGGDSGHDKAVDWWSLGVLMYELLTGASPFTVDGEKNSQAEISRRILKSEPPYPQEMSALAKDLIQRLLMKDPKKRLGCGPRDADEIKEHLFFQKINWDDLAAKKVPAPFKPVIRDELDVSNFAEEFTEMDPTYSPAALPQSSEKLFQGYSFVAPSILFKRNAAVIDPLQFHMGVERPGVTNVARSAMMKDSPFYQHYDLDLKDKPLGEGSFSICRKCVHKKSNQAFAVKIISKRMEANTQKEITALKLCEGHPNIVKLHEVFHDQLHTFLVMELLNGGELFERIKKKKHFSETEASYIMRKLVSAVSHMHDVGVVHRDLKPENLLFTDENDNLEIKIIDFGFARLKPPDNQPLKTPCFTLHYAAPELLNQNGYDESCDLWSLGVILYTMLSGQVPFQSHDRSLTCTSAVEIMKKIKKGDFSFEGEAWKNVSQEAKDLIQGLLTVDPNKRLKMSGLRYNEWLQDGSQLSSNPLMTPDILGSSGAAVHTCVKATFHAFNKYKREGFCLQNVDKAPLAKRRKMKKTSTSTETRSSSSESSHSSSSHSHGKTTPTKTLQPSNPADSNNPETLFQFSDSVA
T30 sequence (Q13554 whole entry): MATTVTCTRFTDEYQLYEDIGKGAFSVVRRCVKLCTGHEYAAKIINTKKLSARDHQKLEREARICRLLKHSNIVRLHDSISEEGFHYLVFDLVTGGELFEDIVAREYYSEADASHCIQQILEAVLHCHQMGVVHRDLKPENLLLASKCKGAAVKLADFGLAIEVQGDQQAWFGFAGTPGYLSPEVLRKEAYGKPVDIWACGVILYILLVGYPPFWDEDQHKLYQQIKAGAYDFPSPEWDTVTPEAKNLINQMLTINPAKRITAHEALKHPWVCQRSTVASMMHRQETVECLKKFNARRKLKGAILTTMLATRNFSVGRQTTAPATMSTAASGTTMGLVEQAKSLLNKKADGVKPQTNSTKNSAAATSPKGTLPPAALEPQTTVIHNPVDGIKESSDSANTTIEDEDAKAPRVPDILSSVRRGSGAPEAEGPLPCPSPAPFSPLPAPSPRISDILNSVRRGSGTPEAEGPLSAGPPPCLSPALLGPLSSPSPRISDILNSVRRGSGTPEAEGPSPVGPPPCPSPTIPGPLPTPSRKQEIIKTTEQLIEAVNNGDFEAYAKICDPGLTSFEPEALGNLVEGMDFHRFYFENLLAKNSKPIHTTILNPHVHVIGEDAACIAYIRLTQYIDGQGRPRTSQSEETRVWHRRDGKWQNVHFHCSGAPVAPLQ

O=C(O)c1cc(C(F)(F)F)ccc1NCCc1c[nH]c2cc(Br)ccc12 [Compound 5, 2-((2-(6-Bromo-1H-indol-3-yl)ethyl)amino)−5-(trifluoromethyl)benzoic Acid]
activity at 10 µM [1]: 87.7 ± 0.4% | activity at 10 µM [2]: 104 ± 2.4% | activity at 10 µM [3]: 90.7 ± 1.5% | activity at 10 µM [4]: 91.7 ± 0.5% | activity at 10 µM [5]: 81 ± 0.3% | activity at 10 µM [6]: 92.9 ± 2.5% | activity at 10 µM [7]: 101 ± 1.1% | activity at 10 µM ([8]; CDK5/P25): 48.6 ± 1.3% | activity at 10 µM ([8]; CDK5/P35): 88.8 ± 0.3% | activity at 10 µM [9]: 90.1 ± 1.1% | activity at 10 µM [10]: 92.1 ± 0.7% | activity at 10 µM [11]: 81.4 ± 4.1% | activity at 10 µM [12]: 109.3 ± 0.4% | activity at 10 µM [13]: 99.7 ± 1.6% | activity at 10 µM [14]: 96.2 ± 1.7% | activity at 10 µM [15]: 121 ± 3% | activity at 10 µM [16]: 96.3 ± 0.6% | activity at 10 µM [17]: 59.9 ± 1.3% | activity at 10 µM [18]: 124% | activity at 10 µM [19]: 118 ± 3% | activity at 10 µM [20]: 93.7 ± 0.9% | activity at 10 µM [21]: 84.1 ± 0.4% | activity at 10 µM [22]: 20.6 ± 1% | activity at 10 µM [23]: 139 ± 7.1% | activity at 10 µM [24]: 95.8 ± 0.2% | activity at 10 µM [25]: 82.2 ± 0.5% | activity at 10 µM [26]: 93.3 ± 0.5% | activity at 10 µM [27]: 96.8 ± 0.8% | activity at 10 µM [28]: 94.4 ± 0.5% | activity at 10 µM [29]: 96.9 ± 2.5% | activity at 10 µM [30]: 62.2 ± 0.8% | activity at 10 µM [31]: 79 ± 0.9% | activity at 10 µM [32]: 98.7 ± 0.5% | activity at 10 µM [33]: 98.7 ± 0.5% | activity at 10 µM [34]: 80.4 ± 1.1% | activity at 10 µM [35]: 67.9 ± 1.8% | activity at 10 µM [36]: 78.7 ± 0.8% | activity at 10 µM [37]: 92.4 ± 0.6%
